The values that follow are results of earlier work, collected in publication PMC6317935 (ChemistryOpen, 2018).

Molecules are shown by their SMILES.

Usually EC50 stands for the midpoint of the concentration-response curve.

In the series the test system is FXR. Particulars: read-out: EC50 (FXR agonist).
As to `CC[C@H]1[C@@H](O)[C@@H]2[C@H](CC[C@]3(C)[C@@H]([C@H](C)CCC(=O)O)CC[C@@H]23)[C@@]2(C)CC[C@@H](O)C[C@@H]12` [Compound 1, obeticholic acid], the EC50 was […].
For the compound `CC(C)OC(=O)C1=CN(C(=O)c2ccc(F)c(F)c2)CC(C)(C)c2c1[nH]c1ccccc21` [Compound 4, WAY‐362450], the EC50 was 4 nM.
Consider `COC(=O)/C=C/c1cccc(N(Cc2ccc(-c3ccc(N(C)C)cc3)cc2)C(=O)C2CCCCC2)c1` [Compound 3, Fexaramine], for which the EC50 is 25 nM.
